Data reported in publication PMC3272584 (Bioorganic & medicinal chemistry, 2011).

tested on: rat neonatal microglia; test: Short-term microglia cell viability: LDH release; conditions: short-term cell viability (90 min)

Row | SMILES | LDH50 (concentration that caused 50% release of the total LDH content of microglia cells)
1 | [C-]#[N+]C(C)(C)C[C@@H]1C[C@H](C)[C@H]2CC[C@H](C)[C@@]3([N+]#[C-])CCC(=O)[C@@H]1[C@H]23 [Compound 6, 8,15-diisocyano-11-amphilectone] | >10 µM
2 | [C-]#[N+][C@@]12CCC(=C)[C@H]3[C@H](CC(C)(C)NC=O)C[C@H](C)[C@@H](CC[C@@H]1C)[C@@H]32 [Compound 4, 8-isocyano-11(20)-ene-15-amphilectaformamide] | >10 µM
3 | [C-]#[N+]C(C)(C)C[C@@H]1C[C@H](C)[C@H]2CC[C@H](C)[C@@]3([N+]#[C-])CCC(=C)[C@@H]1[C@H]23 [Compound 2, (–)-8,15-diisocyano-11(20)-amphilectene] | >10 µM
4 | [C-]#[N+][C@@]1(C)CC[C@H]2[C@H]3[C@@H](C(=C)CC[C@H]31)[C@H](CC(=C)C)C[C@@H]2C [Compound 1, 7-isocyano-11(20)-15(16)-amphilectadiene] | >10 µM
5 | [C-]#[N+][C@@]12CCC(=C)[C@H]3[C@H](CC(C)(C)NC(=O)CN4CCC4=O)C[C@H](C)[C@@H](CC[C@@H]1C)[C@@H]32 [Compound 5, monamphilectine A] | >10 µM
